Assay results as given in article PMC10258805, “Nonpeptidic Oxazole-Based Prolyl Oligopeptidase Ligands with Disease-Modifying Effects on α-Synuclein Mouse Models of Parkinson’s Disease” (Journal of Medicinal Chemistry, 2023).
Like-named read-outs stand apart in the source and are kept apart here.

How the values were obtained:
[1] = tested on: HEK-293 cells stably expressing GFP-LC3B; test: Autophagic flux (GFP-LC3B reporter cells); conditions: for activity at 10 µM: Homo sapiens, HEK293, 24 h
[2] = tested on: αSyn dimerization in Neuro2A (N2A) cells; test: αSyn-dimerization assay (split Gaussia luciferase PCA); conditions: for activity at 10 µM: Mus musculus, N2a
recombinant porcine PREP = molecular target: T1, recombinant porcine PREP (Sus scrofa, UniProt P23687); test: PREP activity assay (inhibition of proteolytic activity); assay type: biochemical
T1 construct: made in house

[3] = tested on: ROS production in SH-SY5Y cells; test: ROS detection assay under oxidative stress; conditions: Homo sapiens, 3 h
[4] = molecular target: T2, PREP in mouse brain homogenate (Mus musculus, UniProt Q9QUR6); test: PREP inhibition measured with mouse brain homogenate; assay type: biochemical
T2 construct: from tissue; host or cells: mouse brain homogenate

[5] = Stability studies (NMR, MS, polarimetry, long-term monitoring); conditions: NMR samples in solution, 2-4 days at room temperature; UPLC-MS two or more weeks after isolation
[6] = read-out: Autophagy at 10 uM (%)
[7] = read-out: autophagy at 10 μM (%)
[8] = read-out: aSyn dimerization at 10 uM (%)
[9] = read-out: αSyn dimer. at 10 μM (%)
[10] = supplementary CSV, read-out: IC50
[11] = read-out: ROS production, % of the control
[12] = read-out: luminescence signal compared to the DMSO control (αSyn dimerization)
[13] = Suc-Gly-Pro-AMC as substrate, 95% CI in brackets, read-out: IC50 (nM) (95% CI)
[14] = read-out: GFP signal of the DMSO control (autophagic flux)

T1 sequence (P23687 whole entry): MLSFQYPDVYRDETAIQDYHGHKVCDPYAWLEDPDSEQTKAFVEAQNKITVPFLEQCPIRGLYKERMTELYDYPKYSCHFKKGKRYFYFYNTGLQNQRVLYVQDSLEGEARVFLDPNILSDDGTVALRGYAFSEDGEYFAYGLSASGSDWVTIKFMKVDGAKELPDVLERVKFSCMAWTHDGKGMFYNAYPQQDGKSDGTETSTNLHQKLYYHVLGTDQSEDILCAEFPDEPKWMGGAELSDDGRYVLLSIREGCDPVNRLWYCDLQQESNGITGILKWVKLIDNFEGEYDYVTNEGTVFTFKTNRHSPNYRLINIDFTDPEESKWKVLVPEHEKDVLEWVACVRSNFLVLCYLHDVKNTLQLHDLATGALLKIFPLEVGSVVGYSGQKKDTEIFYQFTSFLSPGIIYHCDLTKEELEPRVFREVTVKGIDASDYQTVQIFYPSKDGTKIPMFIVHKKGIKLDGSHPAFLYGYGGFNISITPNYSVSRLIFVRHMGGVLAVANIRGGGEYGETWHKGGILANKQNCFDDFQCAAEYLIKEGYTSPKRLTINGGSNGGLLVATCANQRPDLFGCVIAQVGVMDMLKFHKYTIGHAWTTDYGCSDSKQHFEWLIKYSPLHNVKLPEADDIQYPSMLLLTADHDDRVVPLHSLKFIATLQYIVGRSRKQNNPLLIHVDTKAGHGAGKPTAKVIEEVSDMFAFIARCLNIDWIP
T2 sequence (Q9QUR6 whole entry): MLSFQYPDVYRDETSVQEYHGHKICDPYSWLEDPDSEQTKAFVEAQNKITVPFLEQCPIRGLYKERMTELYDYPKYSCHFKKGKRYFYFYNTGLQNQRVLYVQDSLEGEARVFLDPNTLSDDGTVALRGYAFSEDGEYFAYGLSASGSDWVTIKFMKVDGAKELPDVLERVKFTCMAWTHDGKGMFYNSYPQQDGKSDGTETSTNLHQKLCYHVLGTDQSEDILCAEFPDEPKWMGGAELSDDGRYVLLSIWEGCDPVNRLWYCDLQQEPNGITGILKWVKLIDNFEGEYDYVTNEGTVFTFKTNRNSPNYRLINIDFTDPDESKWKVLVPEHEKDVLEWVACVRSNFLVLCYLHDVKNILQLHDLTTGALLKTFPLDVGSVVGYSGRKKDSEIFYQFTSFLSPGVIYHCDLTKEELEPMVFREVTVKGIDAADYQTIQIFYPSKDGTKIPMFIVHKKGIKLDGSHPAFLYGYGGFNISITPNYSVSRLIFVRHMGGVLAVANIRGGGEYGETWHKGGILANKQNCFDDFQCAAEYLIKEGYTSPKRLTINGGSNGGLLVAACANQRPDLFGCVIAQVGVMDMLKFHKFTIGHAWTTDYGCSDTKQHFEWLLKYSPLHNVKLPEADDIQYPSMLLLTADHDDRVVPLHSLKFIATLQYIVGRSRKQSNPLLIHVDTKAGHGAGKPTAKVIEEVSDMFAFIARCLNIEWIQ

SMILES	activity at 10 µM [1, 6] [%]	activity at 10 µM [1, 7] [%]	activity at 10 µM [2, 8] [%]	activity at 10 µM [2, 9] [%]	inhibitory activity (in words) (recombinant porcine PREP)	IC50 (recombinant porcine PREP; [10]) [nM]	activity at 10 µM ([3]; read-out: ROS at 10 uM (%)) [%]	activity at 10 µM ([3]; read-out: ROS at 10 μM (%)) [%]	activity at 10 µM [3, 11] [%]	activity at 10 µM [2, 12] [%]	IC50 (recombinant porcine PREP; [13]) [nM]	activity at 10 µM [1, 14] [%]	GFP signal compared to the DMSO control (in words) ([1]; 10 μM, one-way ANOVA with Dunnett's post-test)	effect on αSyn dimerization (in words) ([2]; 10 μM, N2A cells)	inhibitory activity (in words) ([4]; Table 2: mouse brain homogenate)	IC50 ([4]; measured with mouse brain homogenate, read-out: IC50 (nM) (95% CI))	long-term stability (in words) [5]
N#C[C@@H]1CCCN1c1oc(CCCc2ccccc2)nc1C(=O)C(F)(F)F [compound 12, (S)-1-(2-(3-Phenylpropyl)-4-(2,2,2-trifluoroacetyl)oxazol-5-yl)pyrrolidine-2-carbonitrile]	98	98 ± 2	104	104 ± 5	strongly reduced inhibitory activity	209000	81	81 ± 10	< 88	–	–	–	–	–	–	–	–
Cc1nc(-c2ccccc2)oc1N1CCC[C@H]1C#N [compound 13, (S)-1-(4-Methyl-2-phenyloxazol-5-yl)pyrrolidine-2-carbonitrile]	92	92 ± 1	80	80 ± 9	–	–	86	86 ± 13	< 88	80 to 85	7940	–	–	–	–	–	–
Cc1nc(Cc2ccccc2)oc1N1CCC[C@H]1C#N [compound 14, (S)-1-(2-Benzyl-4-methyloxazol-5-yl)pyrrolidine-2-carbonitrile]	97	97 ± 6	99	99 ± 8	–	–	84	84 ± 4	< 88	–	288	–	–	–	–	–	–
Cc1nc(CCc2ccccc2)oc1N1CCC[C@H]1C#N [compound 15, (S)-1-(4-Methyl-2-phenethyloxazol-5-yl)pyrrolidine-2-carbonitrile]	88	88 ± 4	75	75 ± 4	–	–	89	89 ± 1	–	≤ 75	692	≤ 88	–	–	–	–	–
Cc1nc(CCOc2ccccc2)oc1N1CCC[C@H]1C#N [compound 17, (S)-1-(4-Methyl-2-(2-phenoxyethyl)oxazol-5-yl)pyrrolidine-2-carbonitrile]	94	94 ± 6	120	120 ± 8	–	–	70	70 ± 8	70	–	1160	–	–	–	–	–	–
COc1ccc(CCCc2nc(C)c(N3CCC[C@H]3C#N)o2)cc1 [compound 18, (S)-1-(2-(3-(4-Methoxyphenyl)propyl)-4-methyloxazol-5-yl)pyrrolidine-2-carbonitrile]	98	98 ± 1	100	100 ± 5	–	–	86	86 ± 6	< 88	–	65	–	–	–	–	–	–
COc1ccc(CCCc2nc(C)c(N3CCC[C@H]3C#N)o2)cc1OC [compound 19, (S)-1-(2-(3-(3,4-Dimethoxyphenyl)propyl)-4-methyloxazol-5-yl)pyrrolidine-2-carbonitrile]	93	93 ± 2	98	98 ± 17	–	–	70	70 ± 9	70	–	115	–	–	–	–	–	–
COc1cc(CCc2nc(C)c(N3CCC[C@H]3C#N)o2)cc(OC)c1 [compound 20, (S)-1-(2-(3,5-Dimethoxyphenethyl)-4-methyloxazol-5-yl)pyrrolidine-2-carbonitrile]	89	89 ± 6	100	100 ± 9	–	–	76	76 ± 8	< 88	–	1290	–	–	–	–	–	–
Cc1nc(CCCc2cccs2)oc1N1CCC[C@H]1C#N [compound 21, (S)-1-(4-Methyl-2-(3-(2-thienyl)propyl)oxazol-5-yl)pyrrolidine-2-carbonitrile]	72	72 ± 3	101	101 ± 8	–	–	91	91 ± 6	–	–	18	≤ 88	significantly decreased the signal	–	–	–	–
Cc1nc(CCc2c[nH]c3ccccc23)oc1N1CCC[C@H]1C#N [compound 22, (S)-1-(2-(2-(1H-Indol-3-yl)ethyl)-4-methyloxazol-5-yl)pyrrolidine-2-carbonitrile]	97	97 ± 3	72	72 ± 2	–	–	82	82 ± 11	< 88	≤ 75	890	–	–	–	–	–	–
Cc1nc(CCc2cn(C(=O)C(F)(F)F)c3ccccc23)oc1N1CCC[C@H]1C#N [compound 23, (S)-1-(4-Methyl-2-(2-(1-(2,2,2-trifluoroacetyl)-1H-indol-3-yl)ethyl)oxazol-5-yl)pyrrolidine-2-carbonitrile]	94	94 ± 3	87	87 ± 11	–	–	84	84 ± 7	< 88	–	120	–	–	comparable effect as KYP-2047	–	–	–
Cc1nc(CCC(=O)N2CCCCCC2)oc1N1CCC[C@H]1C#N [compound 24, (S)-1-(2-(3-(Azepan-1-yl)-3-oxopropyl)-4-methyloxazol-5-yl)pyrrolidine-2-carbonitrile]	84	84 ± 5	117	117 ± 9	–	–	90	90 ± 5	–	–	654	≤ 88	–	–	–	–	–
Cc1nc(C(=O)CCc2ccccc2)oc1N1CCCC1 [compound 25, 1-(4-Methyl-5-(pyrrolidin-1-yl)oxazol-2-yl)-3-phenylpropan-1-one]	95	95 ± 10	110	110 ± 6	–	–	105	105 ± 8	–	–	–	–	–	–	very weak inhibitor	90000	–
N#Cc1nc(CCCc2ccccc2)oc1N1CCC[C@H]1C#N [compound 28, (S)-5-(2-Cyanopyrrolidin-1-yl)-2-(3-phenylpropyl)oxazole-4-carbonitrile]	97	97 ± 5	109	109 ± 5	very weak inhibitors	76600	93	93 ± 11	–	–	–	–	–	–	–	–	–
c1ccc(CCCc2ncc(-c3ccccc3)o2)cc1 [compound 29, 5-Phenyl-2-(3-phenylpropyl)oxazole]	90	90 ± 4	90	90 ± 6	strongly reduced inhibitory activities	91600	93	93 ± 11	–	–	–	–	–	–	–	–	–
c1ccc(CCCc2ncc(-c3cccs3)o2)cc1 [compound 30, 2-(3-Phenylpropyl)-5-(2-thienyl)oxazole]	98	98 ± 10	86	86 ± 8	strongly reduced inhibitory activities	37300	96	96 ± 9	–	80 to 85	–	–	–	–	–	–	–
Cc1oc(CCCc2ccccc2)nc1C(=O)N1CCC[C@H]1C#N [compound 33, (S)-1-(5-Methyl-2-(3-phenylpropyl)oxazole-4-carbonyl)pyrrolidine-2-carbonitrile]	97	97 ± 5	109	109 ± 6	very low inhibitory activities	12900	98	98 ± 6	–	–	–	–	–	–	–	–	–
Cc1nc(CCCc2ccccn2)oc1N1CCCC1C#N (stereo not shown) [compound 69]	–	–	–	–	–	–	–	–	–	–	–	–	–	–	–	–	lowered the stability
Cc1nc(CCc2cccnc2)oc1N1CCCC1C#N (stereo not shown) [compound 70]	–	–	–	–	–	–	–	–	–	–	–	–	–	–	–	–	lowered the stability
